Measurements published in patent US5328927A, “Hetercyclic compounds, processes for their preparation and pharmaceutical compositions containing them” (Merck Sharpe & Dohme, Ltd., priority 1992, dated 1994).
Where a name gives a salt, the structure may show the parent alone.

Target: human neurokinin-1-receptor (NK1R) (Homo sapiens, UniProt P25103)
Test: biochemical
Details: 125I-SP binding, cloned human NK1R expressed in COS or CHO, 1 hour at 4° C. or room temperature
Description: To express the cloned human neurokinin-1-receptor (NK1R) transiently in COS, the cDNA for the human NK1R was cloned into the expression vector pCDM9 which was derived from pCDM8 (INVITROGEN) by inserting the ampicillin resistance gene (nucleotide 1973 to 2964 from BLUESCRIPT SK+ (trademark, [sequence], La Jolla, Calif., USA)) into the Sac II site. Transfection of 20 ug of the plasmid DNA into 10 million COS cells was achieved by electroporation in 800 μl of transfection buffer (135 mM NaCl, 1.2 mM CaCl2, 1.2 mM MgCl2, 2.4 mM K2 HPO4, 0.6 mM KH2 PO4, 10 mM glucose, 10 mM N-2-hydroxyethyl-piperazine-N'-2-ethane sulphonic acid (HEPES) pH 7.4) at 260 V and 950 μF using the IBI GENEZAPPER (trademark IBI, New Haven, Conn., USA). The cells were incubated in 10% fetal calf serum, 2 mM glutamine, 100 U/ml penicillin-streptomycin, and 90% DMEM media (GIBCO, Grand Island, N.Y., USA) in 5% CO2 at 37° C. for three days before the binding assay.
The binding assay of human NK1R expressed in either COS or CHO cells is based on the use of ^125 I-substance P (^125 I-SP from DU PONT, Boston, Mass.) as a radioactively labeled ligand which competes with unlabeled substance P or any other ligand for binding to the human NK1R. […] In the binding assay, 200 μl of cells were added to a tube containing 20 μl of 1.5 to 2.5 nM of ^125 I-SP and 20 μl of unlabeled substance P or any other test compound. The tubes were incubated at 4° C. or at room temperature for 1 hour with gentle shaking. The bound radioactivity was separated from unbound radioactivity by GF/C filter (BRANDEL, Gaithersburg, Md.) which was pre-wetted with 0.1% polyethylenimine. The filter was washed with 3 ml of wash buffer (50 mM Tris pH 7.5, 5 mM MnCl2, 150 mM NaCl) three times and its radioactivity was determined by gamma counter.

Chain of human neurokinin-1-receptor (NK1R) (P25103 whole entry): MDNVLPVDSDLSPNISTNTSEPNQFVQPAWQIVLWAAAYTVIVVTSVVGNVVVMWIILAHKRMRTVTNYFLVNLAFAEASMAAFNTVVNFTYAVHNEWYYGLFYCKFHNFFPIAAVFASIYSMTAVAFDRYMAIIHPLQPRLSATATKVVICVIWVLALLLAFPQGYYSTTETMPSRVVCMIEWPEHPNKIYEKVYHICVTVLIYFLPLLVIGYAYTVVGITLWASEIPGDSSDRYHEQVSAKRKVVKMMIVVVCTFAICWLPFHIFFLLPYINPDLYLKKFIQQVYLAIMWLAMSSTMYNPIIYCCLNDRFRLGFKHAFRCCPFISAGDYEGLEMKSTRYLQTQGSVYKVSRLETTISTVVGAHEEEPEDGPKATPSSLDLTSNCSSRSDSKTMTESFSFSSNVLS

## CC(=O)NC(Cc1csc2ccccc12)C(O)C=Cc1cc(C(F)(F)F)cc(C(F)(F)F)c1 (single isomer, unassigned) [2 (Isomer A), 2-Acetamido-1-(3-benzo[b]thienyl)-5-(3,5-bistrifluoromethylphenyl)-4-penten-3-ol]
  IC50: 0.7 µM

## CC(=O)NC(Cc1csc2ccccc12)C(O)C=Cc1cc(C(F)(F)F)cc(C(F)(F)F)c1 (single isomer, unassigned) [2 (Isomer B), 2-Acetamido-1-(3-benzo[b]thienyl)-5-(3,5-bistrifluoromethylphenyl)-4-penten-3-ol]
  IC50: 0.3 µM

## COC(C=Cc1cc(C(F)(F)F)cc(C(F)(F)F)c1)C(Cc1csc2ccccc12)NC(C)=O (single isomer, unassigned) [3 (Isomer A), 2-Acetamido-1-(3-benzo[b]thienyl)-5-(3,5-bistrifluoromethylphenyl)-3-methoxy-4-pentene]
Cell prints μM in nM column
  IC50: > 1 µM

## COC(C=Cc1cc(C(F)(F)F)cc(C(F)(F)F)c1)C(Cc1csc2ccccc12)NC(C)=O (single isomer, unassigned) [3 (Isomer B), 2-Acetamido-1-(3-benzo[b]thienyl)-5-(3,5-bistrifluoromethylphenyl)-3-methoxy-4-pentene]
  IC50: 0.35 µM

## CC(=O)NC(Cc1csc2ccccc12)C(O)CCc1cc(C(F)(F)F)cc(C(F)(F)F)c1 (single isomer, unassigned) [5 (Isomer A), 2-Acetamido-1-(3-benzo[b]thienyl)-5-(3,5-bistrifluoromethylphenyl)-3-pentanol]
  IC50: 0.19 µM

## CC(=O)NC(Cc1csc2ccccc12)C(O)CCc1cc(C(F)(F)F)cc(C(F)(F)F)c1 (single isomer, unassigned) [5 (Isomer B), 2-Acetamido-1-(3-benzo[b]thienyl)-5-(3,5-bistrifluoromethylphenyl)-3-pentanol]
  IC50: 0.5 µM

## COC(CCc1cc(C(F)(F)F)cc(C(F)(F)F)c1)C(Cc1csc2ccccc12)NC(C)=O (single isomer, unassigned) [6 (Isomer A), 2-Acetamido-1-(3-benzo[b]thienyl)-5-(3,5-bistrifluoromethylphenyl)-3-methoxypentane]
  IC50: 0.5 µM

## COC(CCc1cc(C(F)(F)F)cc(C(F)(F)F)c1)C(Cc1csc2ccccc12)NC(C)=O (single isomer, unassigned) [6 (Isomer B), 2-Acetamido-1-(3-benzo[b]thienyl)-5-(3,5-bistrifluoromethylphenyl)-3-methoxypentane]
  IC50: 0.03 µM

## CC(=O)NC(Cc1csc2ccccc12)C(CCc1cc(C(F)(F)F)cc(C(F)(F)F)c1)=NO (single isomer, unassigned) [14 (Isomer A), 2-Acetamido-1-(3-benzo[b]thienyl)-5-(3,5-bistrifluoromethylphenyl)-3-oximinopentane]
  IC50: 0.2 µM

## CC(=O)NC(Cc1csc2ccccc12)C(CCc1cc(C(F)(F)F)cc(C(F)(F)F)c1)=NO (single isomer, unassigned) [14 (Isomer B), 2-Acetamido-1-(3-benzo[b]thienyl)-5-(3,5-bistrifluoromethylphenyl)-3-oximinopentane]
  IC50: 0.3 µM

## CC(=O)NC(Cc1csc2ccccc12)C(=O)C=Cc1cc(C(F)(F)F)cc(C(F)(F)F)c1 (stereo not drawn) [Example 1, 2-Acetamido-1-(3-benzo[b]thienyl)-5-(3,5-bistrifluoromethylphenyl)-4-penten-3-one]
  IC50: 0.35 µM

## CC(=O)NC(Cc1csc2ccccc12)C(=O)CCc1cc(C(F)(F)F)cc(C(F)(F)F)c1 (stereo not drawn) [Example 4, 2-Acetamido-1-(3-benzo[b]thienyl)-5-(3,5-bistrifluoromethylphenyl)-3-pentanone]
  IC50: 0.02 µM

## CN(C)CC(=O)NC(Cc1csc2ccccc12)C(=O)CCc1cc(C(F)(F)F)cc(C(F)(F)F)c1 (stereo not drawn) [Example 9, 1-(3-Benzo[b]thienyl)-5-(3,5-bistrifluoromethylphenyl)-2-(N,N-dimethylglycinamido)-3-pentanone Hydrochloride]
  IC50: 0.03 µM

## CC(C)(C)OC(=O)NC(Cc1c[nH]c2ccccc12)C(=O)CCc1cc(C(F)(F)F)cc(C(F)(F)F)c1 (stereo not drawn) [Example 10, 5-(3,5-Bistrifluoromethylphenyl)-2-t-butyloxycarbonylamino-1-(3-indolyl)-3-pentanone]
  IC50: 0.04 µM

## NC(Cc1c[nH]c2ccccc12)C(=O)CCc1cc(C(F)(F)F)cc(C(F)(F)F)c1 (stereo not drawn) [Example 11, 2-Amino-5-(3,5-bistrifluoromethylphenyl)-1-(3-indolyl)-3-pentanone Hydrochloride]
  IC50: 0.015 µM

## O=C(NC(Cc1c[nH]c2ccccc12)C(=O)CCc1cc(C(F)(F)F)cc(C(F)(F)F)c1)c1ccccc1 (stereo not drawn) [Example 13, 2-Benzamido-5-(3,5-bistrifluoromethylphenyl)-1-(3-indolyl)-3-pentanone]
  IC50: 0.014 µM

## CC(=O)NC(Cc1ccc(Cl)c(Cl)c1)C(=O)CCc1cc(C(F)(F)F)cc(C(F)(F)F)c1 (stereo not drawn) [Example 15, 2-Acetamido-5-(3,5-bistrifluoromethylphenyl)-1-(3,4-dichlorophenyl)-3-pentanone]
  IC50: 0.04 µM

## CN(C)CCCC(=O)NC(Cc1c[nH]c2ccccc12)C(=O)CCc1cc(C(F)(F)F)cc(C(F)(F)F)c1 (stereo not drawn) [Example 17, 5-(3,5-Bistrifluoromethylphenyl)-2-(4-(N,N-dimethylamino)butyramido)-1-(3-indolyl)-3-pentanone Hydrochloride]
  IC50: 0.0004 µM

## CN(C)CCCCC(=O)NC(Cc1c[nH]c2ccccc12)C(=O)CCc1cc(C(F)(F)F)cc(C(F)(F)F)c1 (stereo not drawn) [Example 18, 5-(3,5-Bistrifluoromethylphenyl)-2-(5-(N,N-dimethylamino)pentanamido)-1-(3-indolyl)-3-pentanone]
  IC50: 0.0006 µM

## O=C(NC(Cc1c[nH]c2ccccc12)C(=O)CCc1cc(C(F)(F)F)cc(C(F)(F)F)c1)C1CC1 (stereo not drawn) [Example 19, 5-(3,5-Bistrifluoromethylphenyl)-2-(cyclopropylcarboxamido)-1-(3-indolyl)-3-pentanone]
  IC50: 0.002 µM

## CC(CC(=O)NC(Cc1c[nH]c2ccccc12)C(=O)CCc1cc(C(F)(F)F)cc(C(F)(F)F)c1)c1ccccc1 (stereo not drawn) [Example 20, 5-(3,5-Bistrifluoromethylphenyl)-2-(3-phenylbutyramido)-1-(3-indolyl)-3-pentanone]
  IC50: 0.002 µM
